Results as given in patent US20040176321A1, “Compositions of benzoquinolizine carboxylic acid antibiotic drugs” (priority 2002, published 2004).

Key:
[1] = Solubility study with β-cyclodextrin and hydroxypropyl β-cyclodextrin; type: physicochemical; settings: ca. 24 hours, 27° C.
Procedure: The flasks were kept ca. 24 hours on a mechanical shaker, maintained at 27° C. and 140 rpm. The solutions were filtered through 0.2 micron syringe filter. The filtrates were diluted appropriately and injected on HPLC. The amounts dissolved were determined by comparing the sample peak area with peak area of standard solution.

pKa value = type: physicochemical
[2] = Solubility at ambient temperature (in water); type: physicochemical
Wistar rats = settings: rat, in vivo, iv
Procedure: Wistar rats of body weight range 90-100 gm were treated with i.v. administered above test compositions in doses specified in the table below for a period of 7 days to 28 days. The test doses were administered by injecting 0.5 ml-1.0 ml of test compositions via tail vein of each rat with the help of graduated 1 ml disposable syringe fitted with 26½ G needle. Each repeat dose was administered in 5 male and 5 female rats. Animals were monitored for the induction of phlebitis or its progression to complete venous blockade.

Structure (SMILES) | amount dissolved with HP-β-CD ([1]; HP-β-CD 0 mg/ml) | amount dissolved with HP-β-CD ([1]; HP-β-CD 2 mg/ml) | amount dissolved with HP-β-CD ([1]; HP-β-CD 5 mg/ml) | amount dissolved with HP-β-CD ([1]; HP-β-CD 10 mg/ml) | amount dissolved with HP-β-CD ([1]; HP-β-CD 50 mg/ml) | amount dissolved with β-CD ([1]; β-CD 0 mg/ml) | amount dissolved with β-CD ([1]; β-CD 5 mg/ml) | amount dissolved with β-CD ([1]; β-CD 10 mg/ml) | pKa (pKa value) | solubility [2] | amount dissolved with β-CD ([1]; β-CD 2 mg/ml) | venous tolerability (Wistar rats)
CC1CCc2c(N3CCC(O)CC3)c(F)cc3c(=O)c(C(=O)O)cn1c23 (racemic) [Substance C, RS-(±)-9-fluoro-6,7-dihydro-8-(4-hydroxypiperidin-1-yl)-5-methyl-1-oxo-1H,5H-benzo[I,j]quinolizine-2-carboxylic acid] | 0.03 mg/mL | 0.05 mg/mL | 0.11 mg/mL | 0.31 mg/mL | 1.03 mg/mL | 0.03 mg/mL | 0.22 mg/mL | 0.40 mg/mL | – | – | – | –
C[C@H]1CCc2c(N3CCC(O)CC3)c(F)cc3c(=O)c(C(=O)O)cn1c23 [Substance A, S-(−)-9-fluoro-6,7-dihydro-8-(4-hydroxypiperidin-1-yl)-5-methyl-1-oxo-1H,5H-benzo[I,j]quinolizine-2-carboxylic acid] | 0.04 mg/mL | 0.21 mg/mL | 0.28 mg/mL | 0.55 mg/mL | 2.67 mg/mL | 0.04 mg/mL | 0.27 mg/mL | 0.53 mg/mL | 6.8 | < 1500 µg/mL | 0.12 mg/mL | –
C[C@H]1CCc2c(N3CCC(O)CC3)c(F)cc3c(=O)c(C(=O)O)cn1c23.N=C(N)NCCC[C@H](N)C(=O)O [Substance B, S-(−)-9-fluoro-6,7-dihydro-8-(4-hydroxypiperidin-1-yl)-5-methyl-1-oxo-1H,5H-benzo[I,j]quinolizine-2-carboxylic acid arginine salt] | – | – | – | – | – | – | – | – | – | – | – | superior venous tolerability
C[C@@H]1CCc2c(N3CCC(O)CC3)c(F)cc3c(=O)c(C(=O)O)cn1c23 [Substance D, R-(+)-9-fluoro-6,7-dihydro-8-(4-hydroxypiperidin-1-yl)-5-methyl-1-oxo-1H,5H-benzo[I,j]quinolizine-2-carboxylic acid] | 0.15 mg/mL | 0.37 mg/mL | 0.50 mg/mL | 1.08 mg/mL | 5.01 mg/mL | 0.15 mg/mL | 0.71 mg/mL | – | – | – | – | –
